Measured values reported in patent US11701439B2, “DAZA chelators as ligands in liver imaging” (X-NUCLEAR DIAGNOSTICS GMBH, priority 2017, dated 2023).

Experiments:
[1] = physiological conditions; demetalation e.g. by apo-transferrin; cited from earlier work
[2] = Stability / storability of the ligands as labeling precursors; assay type: physicochemical
embryonated ostrich egg = assay: Administration in ostrich egg and PET/CT examination (in ovo test); conditions: in vivo in the incubated egg, approx. 10 MBq in PBS injected intravascularly
Protocol: The accumulation in the liver of the compounds according to the invention can be examined in a so-called ovo test, i.e. in vivo in an incubated ostrich egg. […] 2. Administration in Ostrich Egg and PET/CT Examination To carry out an intravascular injection in an embryonic egg, it is first necessary to find an […] blood vessel. This is done using a light-intensive […] lamp (Tempo No. 119, Brecker Ltd. & Co. KG, Ruethen, Germany or Powerlux […], Lyon Technologies Inc., Chula Vista, Calif., USA), with which the egg is illuminated through the eggshell in similar manner to a diaphanoscopy. After locating a large-caliber vessel, an approximately 2.5×5 cm rectangular piece is machined from the approximately 2 mm thick egg shell (Dremel® 3000, Dremel Europe-Bosch Powertools B.V., Breda, the Netherlands). Particular care must be taken to maintain the intactness of the inner membrane of the eggshell, which corresponds to the chorioallantoic membrane (CAM). After removing the eggshell lid-again using the […] lamp-the yolk vessel is punctured with a narrow 27G cannula and this is fixed to the eggshell with adhesive strips. The access thus created now allows both CT contrast media and radiopharmaceuticals to be injected via a short length of plastic tubing (Smiths MedicalTM 800/100/100 Smiths, Smiths Medical International Ltd, Ashford, Great Britain). […]

| stability of the ligand (storable as precursor for labeling with 68Ga or 64Cu) [2] | SMILES | stability of the 68Ga complex of the ligand [1] | other results |
| --- | --- | --- | --- |
|  | CCc1cccc(CC)c1NC(=O)CN(CC(=O)O)CC(=O)O [EHIDA] | do not form sufficiently stable ^68Ga complexes |  |
|  | CCOc1ccc(C[C@@H](CN(CCN(CC(=O)O)CC(=O)O)CC(=O)O)N(CC(=O)O)CC(=O)O)cc1 [EOB-DTPA] | do not form sufficiently stable ^68Ga complexes |  |
| stable | CCOc1ccc(CNC2CN(Cc3ccc(OCC)cc3O)CCN(Cc3ccc(OCC)cc3O)C2)c(O)c1 [TEOHB-DAZA, tris-N,N′,N″(4-ethoxy-2-hydroxybenzyl)-1,4-diazepan-6-amine] |  |  |
| stable | COc1ccc(CNC2CN(Cc3ccc(OC)cc3O)CCN(Cc3ccc(OC)cc3O)C2)c(O)c1 [TMeOHB-DAZA, tris-N,N′,N″(4-methoxy-2-hydroxybenzyl)-1,4-diazepan-6-amine] |  |  |
|  | CCOc1ccc(CNC2CN(Cc3ccc(OCC)cc3[O-])CCN(Cc3ccc(OCC)cc3[O-])C2)c([O-])c1.[68Ga+3] [^68Ga-[TEOHB-DAZA], ^68Ga[tris-N,N′,N″(4-ethoxy-2-hydroxybenzyl)-1,4-diazepan-6-amine]] |  | accumulation in the liver (embryonated ostrich egg): almost exclusive accumulation in the liver |
